Values after ≈ are worked out from the molar mass of the structure shown.

The record followed here is US6696404B1, “Antibacterial composition having xanthorrizol” (LG Household & Healthcare, priority 1999, dated 2004).

Type in all cases: cell-based
The subject of one assay is Propionibacterium acnes. Nature of the assay: Viable cell count after xanthorrizol treatment. The following applies: xanthorrizol 0.002%; 37° C. How it is done: To measure the antibacterial activity of xanthorrizol, it was dissolved in DMSO to give specimens with a concentration of 0.001%, 0.0015% and 0.002%, respectively, and incubated with test microorganisms([…] CFU/ml) at 37° C. for 1, 2, 5, and 10 hours, respectively. Then, they were subjected to serial 10-fold dilution, incubated with an acne-causing pathogen, Propionibacterium acnes for 24 to 48 hours, and counted the viable cell number of the pathogen. FIG. 2 is a graph showing antibacterial activity of xanthorrizol in terms of viable cell numbers, where ♦ represents DMSO, control; ▪, 0.001% crude extract; ▾, 0.0015% crude extract; x, 0.002% crude extract, respectively.

For another assay, the system named is Streptococcus mutans. Nature of the assay: Viable cell count after xanthorrizol treatment. To be noted: xanthorrizol 0.0004%(4 μg/ml); 37° C. How it is done: Xanthorrizol was also tested for Streptococcus mutans in a similar manner as described above: xanthorrizol was dissolved in DMSO to give specimens with a concentration of 0.0002%, 0.0004% and 0.0008%, respectively. Then, the specimens were incubated with the microorganism at 37° C. for 1, 2, 5 and 10 minutes, respectively, and subjected to serial 10-fold dilution. After the incubation with the pathogen, viable cell number for Streptococcus mutans was counted. FIG. 3 is a graph showing antibacterial activity of xanthorrizol against Streptococcus mutans in terms of viable cell number, where ♦ represents DMSO, control; ▪, 0.0002% crude extract; Δ, 0.0004% crude extract; x, 0.0008% crude extract, respectively.

Assay [1] has as its system Actinomyces viscosus ATCC 15988. Nature of the assay: MIC by 2-fold dilution. To be noted: ATCC15988, 2×10^5 CFU/ml, 30 to 37° C., more than 24 hours. How it is done:
(§1) In addition, minimum inhibitory concentration(MIC, μg/ml) for various microorganisms was determined by performing 2-fold dilution: first, 1 ml of medium was taken into each tube, and 1 ml of xanthorrizol(0.05% in DMSO) was added to only one tube to make 2-fold dilution. Then, serial 2-fold dilution was further carried out for the rest of the tubes, starting from the tube containing xanthorrizol. 100 μl of microorganism was added into each tube prepared by the 2-fold dilution to contain a final cell number of 2×10^5 CFU/ml, and incubated at 30 to 37° C. for more than 24 hours to determine minimum inhibitory concentrations for various test microorganisms(see: Table 12).

Assay [2] has as its system Bifidobacterium bifidum ATCC 29521. Nature of the assay: MIC by 2-fold dilution. To be noted: ATCC29521, 2×10^5 CFU/ml, 30 to 37° C., more than 24 hours. How it is done: as §1
Assay [3] has as its system Candida albicans ATCC 10231. Nature of the assay: MIC by 2-fold dilution. The following applies: ATCC10231, 2×10^5 CFU/ml, 30 to 37° C., more than 24 hours. How it is done:
as §1

The test system of assay [4] is Candida glabrata IFO 0622. Nature of the assay: MIC by 2-fold dilution. The following applies: Nakaseomyces glabratus, IFO0622; 2×10^5 CFU/ml; 30 to 37° C., more than 24 hours. How it is done:
as §1

The subject of assay [5] is Cladosporium cladosporioides IFO 6348. Nature of the assay: MIC by 2-fold dilution. To be noted: IFO6348, 2×10^5 CFU/ml, 30 to 37° C., more than 24 hours. How it is done:
as §1

Assay [6] deals with Enterococcus faecalis ATCC 19433. Nature of the assay: MIC by 2-fold dilution. To be noted: ATCC19433, 2×10^5 CFU/ml, 30 to 37° C., more than 24 hours. How it is done:
as §1

Assay [7] deals with Lactobacillus aciophilus ATCC 4356. Nature of the assay: MIC by 2-fold dilution. To be noted: ATCC4356, 2×10^5 CFU/ml, 30 to 37° C., more than 24 hours. How it is done: as §1
The subject of assay [8] is Lactobacillus casei ATCC 4646. Nature of the assay: MIC by 2-fold dilution. The following applies: Lacticaseibacillus casei, ATCC4646; 2×10^5 CFU/ml; 30 to 37° C., more than 24 hours. How it is done: as §1
Assay [9] deals with Penicilium chrysogenum IFO 5472. Nature of the assay: MIC by 2-fold dilution. To be noted: 2×10^5 CFU/ml; 30 to 37° C., more than 24 hours. How it is done: as §1
For assay [10], the system named is Penicilium citrinum IFO 6352. Nature of the assay: MIC by 2-fold dilution. The following applies: 2×10^5 CFU/ml; 30 to 37° C., more than 24 hours. How it is done:
as §1

Assay [11] has as its system Pityrosporum pacchydermatis ATCC 14522. Nature of the assay: MIC by 2-fold dilution. To be noted: 2×10^5 CFU/ml; 30 to 37° C., more than 24 hours. How it is done:
as §1

Assay [12] deals with Porphyromonas gingivalis W 50. Nature of the assay: MIC by 2-fold dilution. To be noted: W50, 2×10^5 CFU/ml, 30 to 37° C., more than 24 hours. How it is done:
as §1

Assay [13] deals with Propionibacterium acnes ATCC 6919. Nature of the assay: MIC by 2-fold dilution. The following applies: Cutibacterium acnes, ATCC6919; 2×10^5 CFU/ml; 30 to 37° C., more than 24 hours. How it is done: as §1
For assay [14], the system named is Saccharomyces cerevisiae ATCC 9763. Nature of the assay: MIC by 2-fold dilution. To be noted: ATCC9763, 2×10^5 CFU/ml, 30 to 37° C., more than 24 hours. How it is done: as §1
Assay [15] deals with Salmonella typhimurium IFO 12529. Nature of the assay: MIC by 2-fold dilution. To be noted: Salmonella enterica; 2×10^5 CFU/ml; 30 to 37° C., more than 24 hours. How it is done: as §1
In assay [16] the test system is Staphylococcus aureus ATCC 12600. Nature of the assay: MIC by 2-fold dilution. The following applies: ATCC12600, 2×10^5 CFU/ml, 30 to 37° C., more than 24 hours. How it is done: as §1
Assay [17] has as its system Streptococcus sanguis ATCC 35105. Nature of the assay: MIC by 2-fold dilution. To be noted: ATCC35105, 2×10^5 CFU/ml, 30 to 37° C., more than 24 hours. How it is done:
as §1

The subject of assay [18] is Streptococcus sobrinus ATCC 27351. Nature of the assay: MIC by 2-fold dilution. To be noted: ATCC27351, 2×10^5 CFU/ml, 30 to 37° C., more than 24 hours. How it is done:
as §1

The test system of assay [19] is Streptomyces bikiniensis ATCC 11062. Nature of the assay: MIC by 2-fold dilution. The following applies: ATCC11062, 2×10^5 CFU/ml, 30 to 37° C., more than 24 hours. How it is done:
as §1

The test system of a further assay is the pathogens. Nature of the assay: Change in cell morphology (TEM) after xanthorrizol treatment. To be noted: 10 μg/ml xanthorrizol for 30 minutes. How it is done: To assess the extent of xanthorrizol-mediated cell damage, 10 μg/ml xanthorrizol was treated to the pathogens for 30 minutes. […] Further, it was assumed that through the efflux of intracellular macromolecules and ions, the permeability of cell wall is increased to accelerate the efflux of intracellular components, which in turn inactivates cellular enzymes and causes the malfunction of cell wall.

Take `CC(C)=CCC[C@@H](C)c1ccc(C)c(O)c1` [xanthorrizol, 1,3,5,10-bisabolatetraen-3-ol]: the “Eradication of the microorganism (viable cell number, FIG. 2)” value with Propionibacterium acnes was “eradicated almost completely in one hour”. In the assay with Streptococcus mutans, the “Eradication of the microorganism (viable cell number, FIG. 3)” value is given as “eradicated almost completely in one minute”. Also, the MIC in [1] is 16 µg/mL (≈ 73.3 µM); in assay [2], 250 µg/mL (≈ 1150 µM); in [3] it was 125 µg/mL (≈ 573 µM); in assay [4], 125 µg/mL (≈ 573 µM); in assay [5] it was 500 µg/mL (≈ 2290 µM); in assay [6], 16 µg/mL (≈ 73.3 µM). The MIC was found to be 500 µg/mL (≈ 2290 µM) in assay [7]; 250 µg/mL (≈ 1150 µM) in [8]; 125 µg/mL (≈ 573 µM) in assay [9]; 250 µg/mL (≈ 1150 µM) in assay [10]; 125 µg/mL (≈ 573 µM) in [11]; 32 µg/mL (≈ 147 µM) in assay [12]. Further, the MIC in assay [13] is 16 µg/mL (≈ 73.3 µM); in assay [14] it was 250 µg/mL (≈ 1150 µM); in [15], 62.5 µg/mL (≈ 286 µM); in [16] it was 62.5 µg/mL (≈ 286 µM); in [17], 4 µg/mL (≈ 18.3 µM); in [18] it was 4 µg/mL (≈ 18.3 µM). It took 32 µg/mL (≈ 147 µM) to inhibit growth in assay [19] (MIC). In the assay on the pathogens, the “cell morphology (TEM)” value was “cell wall expansion was detected, followed by cell disruption”.

Usually MIC stands for the lowest concentration found to suppress growth.
